What follows are compounds tested on Multidrug resistance-associated protein 1 (assay: TP_TRANSPORTER: drug resistance in MRP1-expressing HEK293 cells). Settings: human.
Assay type: functional, cell-based

Activity, substrate []:
COc1cccc2c1C(=O)c1c(O)c3c(c(O)c1C2=O)C[C@@](O)(C(=O)CO)C[C@@H]3O[C@H]1C[C@H](N)[C@H](O)[C@H](C)O1 [DOXORUBICIN]
COc1cc([C@@H]2c3cc4c(cc3[C@@H](O[C@@H]3O[C@@H]5CO[C@@H](C)O[C@H]5[C@H](O)[C@H]3O)[C@H]3COC(=O)[C@H]23)OCO4)cc(OC)c1O [ETOPOSIDE]
CC[C@]1(O)C[C@H]2CN(CCc3c([nH]c4ccccc34)[C@@](C(=O)OC)(c3cc4c(cc3OC)N(C=O)[C@H]3[C@@](O)(C(=O)OC)[C@H](OC(C)=O)[C@]5(CC)C=CCN6CC[C@]43[C@@H]65)C2)C1 [VINCRISTINE]
COc1cccc2c1C(=O)c1c(O)c3c(c(O)c1C2=O)C[C@@](O)(C(=O)CO)C[C@@H]3O[C@H]1C[C@H](N)[C@@H](O)[C@H](C)O1 [EPIRUBICIN]

Source: ChEMBL document CHEMBL2074511, “Molecular cloning and pharmacological characterization of rat multidrug resistance protein 1 (mrp1)” (Drug Metab Dispos, 2003)
